≈ marks a conversion by molar mass, not a printed value. Read-outs that look alike come from different tables or passages of the source.
Legend:
[1] = tested on: mouse ascites sarcoma S180; experiment: Efficacy studies of anti-tumor in vivo, S180 sarcoma in Kunming mice; details: for Growth Inhibition of S180 sarcoma, inhibition rate: mouse, in vivo, ip; for Difference from the control group in S180 sarcoma growth: Kunming mice, S180, p<0.05
[2] = tested on: MCF7 cells (breast cancer cells); experiment: In vitro anti-cancer cell experiment (MTT), MCF7; details: Homo sapiens
[3] = MCF7, 48 h, read-out: Growth Inhibition of cell line IC50, MCF7
[4] = MCF7, read-out: IC50, anti-proliferative effect on MCF7 cells

Row | Compound | Growth Inhibition of S180 sarcoma, inhibition rate [1] | Difference from the control group in S180 sarcoma growth [1] | IC50 [2, 3] | IC50 [2, 4]
1 | (1R,3S,5R,7S,Z)-1-hydroxy-3-methyl-2- oxaadamantan-6-one oxime [Example 74] | 20% | – | – | –
2 | (1R,3R,5S,7S,Z)-1-azaadamantan-4- one oxime [Example 55] | 32% | – | – | –
3 | Nc1ccc2c(c1)C(=O)N(CC(=O)NC13CC4CC(CN(C4)C1)C3)C2=O [Example 9, N-((1r,3r,5R,7S)-1-azaadamantan-3-yl)-2-(5-amino-1,3-dioxoisoindolin-2-yl)acetamide] | – | significant difference | – | –
4 | COC(=O)C12C3CC4CC5C3CC(CC5C1(C(=O)OC)N4C)N2C [Example 107, dimethanol decahydro-2,8,4,6-(cyclobutyl[1,2,3,4]dimethyl) naphthalene-2,4,4a,6-dicarboxylate] | – | significant difference | – | –
5 | O=C(CN1C(=O)C2C3CC(O)C(O3)C2C1=O)NC12CC3CC(CN(C3)C1)C2 (stereo not shown) [Example 7, N-((1r,3r)-1-azaadamantan-3-yl)-2-(5-hydroxy-1,3-dioxohexahydro-1H-4,7-epoxyisoindol-2(3H)-yl)acetamide] | – | significant difference | – | –
6 | O=C(Cn1cnc(-c2ccccc2)c1-c1ccccc1)NC12CC3CC(CC(C3)C1)C2 [Example 11, N-((1s,3s)-adamantan-1-yl)-2-(4,5-diphenyl-1H-imidazol-1-yl)acetamide] | – | significant difference | – | –
7 | O=C(CN1C(=O)c2ccc([N+](=O)[O-])cc2C1=O)NC12CC3CC(CN(C3)C1)C2 [Example 8, N-((1r,3r,5R,7S)-1-azaadamantan-3-yl)-2-(5-nitro-1,3-dioxoisoindolin-2-yl)acetamide] | – | significant difference | – | –
8 | OC12CC3CC(CC(C3)O1)C2 [Example 47, 2-oxaadamantan-1-ol] | – | – | 56.3 µg/mL (≈ 365 µM) | 56.3 µg/mL (≈ 365 µM)
9 | COc1cc(C23CN4CN(C2)CC(c2cc(OC)c(OC)c(OC)c2)(C4)C3=O)cc(OC)c1OC [Example 62, (1r,3r,5r,7r)-5,7-bis(3,4,5-trimethoxyphenyl)-1,3-diazaadamantan-6-one] | – | – | 6.94 µg/mL (≈ 14.3 µM) | 6.94 µg/mL (≈ 14.3 µM)
10 | CCCCCNC12CN3CN(CN(C3)C1)C2 [Example 68, (1s,3s,5s)-N-pentyl-1,3,5-triazaadamantan-7-amine] | – | significant difference | 2.28 µg/mL (≈ 10.2 µM) | 2.28 µg/mL (≈ 10.2 µM)
11 | O=C1C2CC3CC(C2)OC1C3 (stereo not shown) [Example 43, 2-oxaadamantan-4-one] | – | – | 44.2 µg/mL (≈ 291 µM) | 44.2 µg/mL (≈ 291 µM)
